Measured values taken from US20110052532A1, “Pharmaceutical composition comprising a cytokine” (priority 2007, published 2011).

B1: IFN-α: type I interferon cytokine; commercial IFN-α is IFN-α1 (protein, UniProt P01562 24-189, looked up)
Interferon alpha-1/13: CDLPETHSLDNRRTLMLLAQMSRISPSSCLMDRHDFGFPQEEFDGNQFQKAPAISVLHELIQQIFNLFTTKDSSAAWDEDLLDKFCTELYQQLNDLEACVMQEERVGETPLMNADSILAVKKYFRRITLYLTEKKYSPCAWEVVRAEIMRSLSLSTNLQERLRRKE

Assays:
[1] = tested on: Madin-Darby bovine kidney cells; assay: BVDV assay, combined cytotoxicity (MTS staining); type: cell-based; conditions: in combination with IFN-α; MDBK cells
Experimental: (§1) The substances were solubilized in DMSO. Pegylated interferon-alpha (IFN) was supplied by Southern Research Institute and dissolved in sterile dH2O.
(§2) Drug-drug interactions were assayed by testing both the antiviral and cytotoxic activities of a wide range of concentrations of combinations of the compounds and IFN. The bovine viral diarrhea virus (BVDV) NADL strain antiviral evaluation assay and drug-drug combination analysis was performed as described in Antimicro. Agents Chemother. 2003; 47: 2293-8. BVDV is frequently employed as a hepatitis C virus surrogate model in the study of antiviral agents (Antiviral Res. 2003; 60:1-15). Madin-Darby bovine kidney cells were trypsinized, pelleted, counted and resuspended at 1×10^4/well in tissue culture medium in 96-well flat bottom, tissue culture plates in volume of 100 μl per well. […] Five concentrations of substance were evaluated in combination with nine different concentrations IFN; antiviral efficacy and cellular toxicity were monitored by MTS staining at the experimental endpoint.
(§3) At assay termination, the assay plates were stained with the soluble tetrazolium-based dye MTS (CellTiter Reagent Promega) to determine cell viability and quantify compound toxicity. […]
(§4) Theoretical additive values are calculated from the dose response curves for each substance used individually. […]

[2] = tested on: bovine viral diarrhea virus (BVDV) NADL strain; assay: BVDV antiviral drug-drug combination assay (MTS, MacSynergy II); type: cell-based; conditions: in combination with IFN-α; MDBK cells with BVDV virus
Experimental: as §1, §2, §3, §4

[3] = tested on: HCV; conditions: cited from earlier work

Molecule	combined cytotoxic activity (drug-drug interaction) [1]	combined antiviral activity (drug-drug interaction) [2]	sustained antiviral response, share of patients ([3]; IFN-α therapy in chronic HCV infected patients)	sustained response ([3]; combination therapy with ribavirin)
O=C(c1ccccc1)c1ccc2nc(NC(=O)c3csc(C4CCN(c5ncnc6ccsc56)CC4)n3)[nH]c2c1 [Compound 273, 2-(1-Thieno[3,2-d]pyrimidin-4-yl-piperidin-4-yl)-thiazole-4-carboxylic acid (5-benzoyl-1H-benzoimidazol-2-yl)-amide]	highly antagonistic behaviour	highly synergistic behaviour	–	–
B1	–	–	15-20%	38-43%
